Laboratory results taken from ChEMBL document CHEMBL3885881, “DrugMatrix”.

Organism: Rattus norvegicus
Assay: DrugMatrix - Regimen: Daily Repeat
Format: toxicity, organism-based, Sprague-Dawley
Set-up: regimen Daily Repeat, gender Male, age 6-8 weeks
Conditions: in vivo, po, route oral GAVAGE, vehicle .5 % CMC; for BASOPHIL / EOSINOPHIL / ERYTHROCYTE COUNT / HEMATOCRIT / HEMOGLOBIN / LEUKOCYTE COUNT / LYMPHOCYTE / MEAN CORPUSCULAR HEMOGLOBIN / MEAN CORPUSCULAR HEMOGLOBIN CONCENTRATION / MEAN CORPUSCULAR VOLUME / MONOCYTE / NEUTROPHIL / PLATELET COUNT: tissue Blood; for ALANINE AMINOTRANSFERASE / ALBUMIN / ALKALINE PHOSPHATASE / ASPARTATE AMINOTRANSFERASE / BLOOD UREA NITROGEN / CHLORIDE / CHOLESTEROL / CREATINE PHOSPHOKINASE / CREATININE / GLUCOSE / PHOSPHORUS / POTASSIUM / SODIUM / TOTAL BILIRUBIN / TOTAL PROTEIN: tissue Plasma
[1] = 0 mg/kg, 72 h, dose level Control, time 3 day
[2] = 0 mg/kg, 120 h, dose level Control, time 5 day
[3] = 5 mg/kg, 72 h, dose level Low, time 3 day
[4] = 5 mg/kg, 120 h, dose level Low, time 5 day

SMILES: CN1C(=O)CN=C(c2ccccc2)c2cc([N+](=O)[O-])ccc21 [NIMETAZEPAM]
- BASOPHIL [1]: 1.52%
- EOSINOPHIL [1]: 0.98%
- ERYTHROCYTE COUNT [1]: 6.96 x10E6/uL
- HEMATOCRIT [1]: 44.65%
- HEMOGLOBIN [1]: 13.62 G/DL
- LEUKOCYTE COUNT [1]: 9.83 x10E3/uL
- LYMPHOCYTE [1]: 76.48%
- MEAN CORPUSCULAR HEMOGLOBIN [1]: 19.57 pg
- MEAN CORPUSCULAR HEMOGLOBIN CONCENTRATION [1]: 30.47 G/DL
- MEAN CORPUSCULAR VOLUME [1]: 64.22 fL
- MONOCYTE [1]: 2.13%
- NEUTROPHIL [1]: 18.6%
- PLATELET COUNT [1]: 1217.17 x10E3/uL
- ALANINE AMINOTRANSFERASE [1]: 41 u/L
- ALBUMIN [1]: 3.77 G/DL
- ALKALINE PHOSPHATASE [1]: 411.83 u/L
- ASPARTATE AMINOTRANSFERASE [1]: 62.83 u/L
- BLOOD UREA NITROGEN [1]: 15.17 mg/dL
- CHLORIDE [1]: 104.33 MEQ/L
- CHOLESTEROL [1]: 71.17 mg/dL
- CREATINE PHOSPHOKINASE [1]: 123.5 u/L
- CREATININE [1]: 0.55 mg/dL
- GLUCOSE [1]: 182.67 mg/dL
- PHOSPHORUS [1]: 11.23 mg/dL
- POTASSIUM [1]: 7.03 MEQ/L
- SODIUM [1]: 148 MEQ/L
- TOTAL BILIRUBIN [1]: 0.57 mg/dL
- TOTAL PROTEIN [1]: 6.85 G/DL
- BASOPHIL [2]: 1.35%
- EOSINOPHIL [2]: 0.43%
- ERYTHROCYTE COUNT [2]: 6.96 x10E6/uL
- HEMATOCRIT [2]: 44.35%
- HEMOGLOBIN [2]: 13.98 G/DL
- LEUKOCYTE COUNT [2]: 9.45 x10E3/uL
- LYMPHOCYTE [2]: 80.83%
- MEAN CORPUSCULAR HEMOGLOBIN [2]: 20.1 pg
- MEAN CORPUSCULAR HEMOGLOBIN CONCENTRATION [2]: 31.52 G/DL
- MEAN CORPUSCULAR VOLUME [2]: 63.72 fL
- MONOCYTE [2]: 2.37%
- NEUTROPHIL [2]: 14.05%
- PLATELET COUNT [2]: 1298 x10E3/uL
- ALANINE AMINOTRANSFERASE [2]: 42.17 u/L
- ALBUMIN [2]: 3.77 G/DL
- ALKALINE PHOSPHATASE [2]: 419 u/L
- ASPARTATE AMINOTRANSFERASE [2]: 66.67 u/L
- BLOOD UREA NITROGEN [2]: 16.67 mg/dL
- CHLORIDE [2]: 103.17 MEQ/L
- CHOLESTEROL [2]: 66.33 mg/dL
- CREATINE PHOSPHOKINASE [2]: 148.33 u/L
- CREATININE [2]: 0.58 mg/dL
- GLUCOSE [2]: 196.83 mg/dL
- PHOSPHORUS [2]: 11.8 mg/dL
- POTASSIUM [2]: 6.47 MEQ/L
- SODIUM [2]: 148.33 MEQ/L
- TOTAL BILIRUBIN [2]: 0.53 mg/dL
- TOTAL PROTEIN [2]: 6.77 G/DL
- BASOPHIL [3]: 2.83%
- EOSINOPHIL [3]: 0.3%
- ERYTHROCYTE COUNT [3]: 7.13 x10E6/uL
- HEMATOCRIT [3]: 44.5%
- HEMOGLOBIN [3]: 13.9 G/DL
- LEUKOCYTE COUNT [3]: 11.4 x10E3/uL
- LYMPHOCYTE [3]: 76.5%
- MEAN CORPUSCULAR HEMOGLOBIN [3]: 19.5 pg
- MEAN CORPUSCULAR HEMOGLOBIN CONCENTRATION [3]: 31.2 G/DL
- MEAN CORPUSCULAR VOLUME [3]: 62.43 fL
- MONOCYTE [3]: 2.87%
- NEUTROPHIL [3]: 16.73%
- PLATELET COUNT [3]: 1489.33 x10E3/uL
- ALANINE AMINOTRANSFERASE [3]: 36.67 u/L
- ALBUMIN [3]: 3.67 G/DL
- ALKALINE PHOSPHATASE [3]: 291 u/L
- ASPARTATE AMINOTRANSFERASE [3]: 57 u/L
- BLOOD UREA NITROGEN [3]: 11.67 mg/dL
- CHLORIDE [3]: 102.67 MEQ/L
- CHOLESTEROL [3]: 68.67 mg/dL
- CREATINE PHOSPHOKINASE [3]: 130.67 u/L
- CREATININE [3]: 0.5 mg/dL
- GLUCOSE [3]: 173 mg/dL
- PHOSPHORUS [3]: 11.97 mg/dL
- POTASSIUM [3]: 6.37 MEQ/L
- SODIUM [3]: 149.67 MEQ/L
- TOTAL BILIRUBIN [3]: 0.27 mg/dL
- TOTAL PROTEIN [3]: 6.6 G/DL
- BASOPHIL [4]: 0.95%
- EOSINOPHIL [4]: 2.55%
- ERYTHROCYTE COUNT [4]: 7 x10E6/uL
- HEMATOCRIT [4]: 43.15%
- HEMOGLOBIN [4]: 13.8 G/DL
- LEUKOCYTE COUNT [4]: 10.5 x10E3/uL
- LYMPHOCYTE [4]: 75.25%
- MEAN CORPUSCULAR HEMOGLOBIN [4]: 19.7 pg
- MEAN CORPUSCULAR HEMOGLOBIN CONCENTRATION [4]: 32 G/DL
- MEAN CORPUSCULAR VOLUME [4]: 61.5 fL
- MONOCYTE [4]: 2.15%
- NEUTROPHIL [4]: 18.45%
- PLATELET COUNT [4]: 1383 x10E3/uL
- ALANINE AMINOTRANSFERASE [4]: 34.67 u/L
- ALBUMIN [4]: 3.57 G/DL
- ALKALINE PHOSPHATASE [4]: 351 u/L
- ASPARTATE AMINOTRANSFERASE [4]: 62.67 u/L
- BLOOD UREA NITROGEN [4]: 11.67 mg/dL
- CHLORIDE [4]: 102.67 MEQ/L
- CHOLESTEROL [4]: 62.67 mg/dL
- CREATINE PHOSPHOKINASE [4]: 168.67 u/L
- CREATININE [4]: 0.6 mg/dL
- GLUCOSE [4]: 170.33 mg/dL
- PHOSPHORUS [4]: 13 mg/dL
- POTASSIUM [4]: 7.1 MEQ/L
- SODIUM [4]: 147 MEQ/L
- TOTAL BILIRUBIN [4]: 0.4 mg/dL
- TOTAL PROTEIN [4]: 6.37 G/DL
